Test results from patent US11555006B2, “Elucidation of novel 13-series resolvins that increase with atorvastatin and clear infections” (The Brigham and Women's Hospital, Inc., priority 2015, dated 2023).

What was measured:
[1] = system: human neutrophil-endothelial cell co-incubations; assay: Lipid mediator levels in human endothelial cell incubations and neutrophil-endothelial cell co-incubations; type: cell-based; settings: neutrophil-endothelial cells, 1 μM precursor
Method: Prior to sample extraction, deuterated internal standards (d4-PGE2, d5-LXA4, d4-RvD2, d4-LTB4 and d8-5S-HETE) representing regions of interest in the chromatographic analysis (500 pg each) were added to facilitate quantification. Extracted samples were analyzed by a LC-MS-MS system, Qtrap 6500 (AB Sciex) equipped with a Shimadzu SIL-20AC autoinjector and LC-20AD binary pump (Shimadzu Corp.). An Agilent Eclipse Plus C18 column (100×4.6 mm×1.8 μm) was used with a gradient of methanol/water/acetic acid of 55:45:0.01 (vol:vol:vol) that was ramped to 85:15:0.01 (vol:vol:vol) over 10 min and then to 98:2:0.01 (vol:vol:vol) for the next 8 min. This was subsequently maintained at 98:2:0.01 (vol:vol:vol) for 2 min. The flow rate was maintained at 0.4 ml/min. To monitor and quantify the levels of lipid mediators, a multiple reaction monitoring (MRM) method was developed with signature ion fragments (m/z) for each molecule monitoring the parent ion (Q1) and a characteristic daughter ion (Q3). […] Calibration curves were determined using a mixture of lipid mediators obtained via total organic synthesis, where these lipid mediators were not available (RvT1, RvT2, RvT3, RvT4 and 13-HDPA); known mediators with similar chromatographic properties (RvD2 for RvT1, RvD1 for RvT2 and RvT3; RvD5 for RvT4; 13-HDHA for 13-HDPA) were used. […]

human recombinant COX-2 [2] = target: T1, human recombinant COX-2 (Homo sapiens, UniProt P35354); assay: Recombinant enzyme incubations, Michaelis Menten kinetics; type: biochemical; settings: n-3 DPA converted to 13R-HDPA by human recombinant COX-2
T1 construct: purchased Cayman Chemicals
T1 sequence (P35354 18-604): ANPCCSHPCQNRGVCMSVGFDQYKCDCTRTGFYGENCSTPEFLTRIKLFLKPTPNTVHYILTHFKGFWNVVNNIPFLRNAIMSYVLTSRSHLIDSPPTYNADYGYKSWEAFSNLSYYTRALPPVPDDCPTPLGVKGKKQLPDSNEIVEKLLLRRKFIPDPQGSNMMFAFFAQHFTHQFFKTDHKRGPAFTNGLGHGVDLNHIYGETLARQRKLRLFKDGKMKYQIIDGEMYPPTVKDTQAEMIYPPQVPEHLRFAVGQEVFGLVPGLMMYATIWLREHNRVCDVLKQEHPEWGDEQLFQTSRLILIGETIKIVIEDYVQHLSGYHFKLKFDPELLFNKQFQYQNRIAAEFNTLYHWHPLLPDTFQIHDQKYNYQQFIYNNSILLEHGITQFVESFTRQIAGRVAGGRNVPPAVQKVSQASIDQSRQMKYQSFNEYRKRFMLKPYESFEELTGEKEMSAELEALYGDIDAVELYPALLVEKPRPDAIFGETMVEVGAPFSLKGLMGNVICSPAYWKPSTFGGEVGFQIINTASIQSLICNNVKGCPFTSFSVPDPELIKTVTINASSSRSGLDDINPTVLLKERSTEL
Method: Human recombinant COX-2 (10 units; Cayman Chemicals; in 0.1 M Tris-HCl, pH 8.0, 20 μM porcine hematin, 0.67 mM phenol as in ^33) was incubated with the indicated concentrations of AA or n-3 DPA (1 h, RT) and absorbance at 235 nm was investigated at 1 min intervals using a Cary UV-Vis Spectrophotometer (Agilent).

[3] = system: E. coli infections in mice; assay: E. coli peritonitis in mice; type: in vivo; settings: summary table of bioactions
Method: All animal experiments were conducted in accordance with the Harvard Medical Area Standing Committee on Animals (protocol no. 02570). Mice (male FvB, 6-8 weeks old, Charles River, fed lab diet containing essential fatty acids as from supplier) were anesthetized with isoflurane and microbial peritonitis initiated. Briefly, test compounds or vehicle were injected i.p. or i.v. 5 min prior to live E. coli (serotype 06:K2:H1; 1×10^5 or 1×10^7 CFU/mouse). At designated time intervals mice were harvested, blood was collected via cardiac puncture in heparin, and peritoneal exudates were collected in 4 ml of PBS. The cellular composition in the exudates was determined using Turks solution and light microscopy, and by flow cytometry. For flow cytometry, exudate cells were incubated with anti-mouse CD16/CD32 (eBiosciences, 20 min, 4° C., in PBS containing 5% fetal calf serum-staining solution), followed by incubation with FITC-conjugated anti-mouse Ly6G antibody (clone: 1A8, eBiosciences), PE-conjugated anti-mouse F4/80 antibody (clone:BM8, eBiosciences) and PerCP-Cy5.5-conjugated anti-mouse CD11b antibody (clone:M1/70, eBiosciences) for 30 min (4° C., in staining solution). To assess bacterial phagocytosis in peritoneal exudate leukocytes, exudate cells were incubated with PerCP-Cy5.5-conjugated anti-mouse CD11b antibody (30 min, 4° C., in staining solution), then fixed and permeabilized using BD Perm/Wash™ Buffer (BD Biosciences) following manufacturer's instructions and incubated with FITC-conjugated anti-E. coli antibody (GenTex, 30 min, 4° C., in BD Perm/Wash™ Buffer). Efferocytosis in infectious exudates was assessed by incubating exudate leukocytes with PE-conjugated anti-mouse F4/80 antibody (30 min, 4° C., in staining solution), then fixed and permeabilized using BD Perm/Wash™ Buffer (BD Biosciences) and incubated with FITC-conjugated anti-mouse Ly6G antibody (30 min, 4° C., in BD Perm/Wash™ Buffer). Body temperatures were assessed using an Infrared thermometer (Fluke). Bacterial counts in peripheral blood and inflammatory exudates were determined by overnight cultures (37° C.) of serially diluted samples on LB agar plates. Caspase 1 levels were assessed by incubation of exudate cells with PerCP-Cy5.5-conjugated anti-mouse CD11b antibody (30 min, 4° C., in staining solution), then fixed and permeabilized using BD Perm/Wash™ Buffer (BD Biosciences), incubated with anti-caspase 1 antibody (Abcam, 30 min, 4° C., in BD Perm/Wash™ Buffer) followed by anti-rabbit Alexa 488 conjugated antibody (Life Technologies, 30 min, 4° C., in BD Perm/Wash™ Buffer). IL-1β levels were determined in cell-free supernatants using an anti-mouse IL-1β ELISA (Abcam) following manufacturer's instructions. Lactate dehydrogenase activity was measured in cell-free supernatants assessing the formation of NADH from NAD+ using a Lactate Dehydrogenase Assay kit (Sigma) following manufacturer's instructions.
In select experiments resolution indices were calculated as in ^27. Ψmax, maximal PMN numbers in exudates; Tmax, time point when PMN numbers reach maximum; R50, 50% of maximal PMN numbers; T50, time point when PMN numbers reduce to 50% of maximum; Ri (resolution interval), T50-Tmax, time period when 50% PMN are lost from the exudates. To assess the proresolving actions of the test products, these were administered 12 h after E. coli (10^5 CFU) inoculation, and resolution indices were assessed.
For some experiments, mice were administered via i.p. injection RvT1, RvT2, RvT3 and RvT4 (that were isolated as detailed below and combined as a mixture at a ratio of 2:1:1:8 respectively) 2 h after E. coli inoculation. Blood and lungs were harvested 6 h after E. Coli inoculation. Blood was employed to determine peripheral blood eicosanoid levels as detailed below.

human macrophages [4] = assay: Human macrophage phagocytosis, ROS and efferocytosis; type: cell-based
Method: Macrophages were prepared from peripheral blood mononuclear cells (PBMC) purchased from Children's Hospital Blood Bank, Boston, and phagocytosis was assessed as in^31. Briefly, macrophages (5×10^4 cells/well) were incubated with RvT1 (1 pM-10 nM), 1:1 mixture RvT2 and RvT3 (1 pM-10 nM), RvT4 (1 pM-10 nM) or vehicle (0.1% EtOH in DPBS) for 15 min at 37° C., then fluorescent labeled apoptotic cells were added and cells incubated 45 min at 37° C. Extracellular fluorescence was quenched using Trypan blue (1:15 dilution) and phagocytosis assessed using an M3 SpectraMax plate reader (Molecular Devices). In select experiments, macrophages (prepared as detailed above, 5×10^4 cells/well) or neutrophils (1×10^5 cells/well), obtained from human healthy volunteers and isolated as in ^31 in accordance with Partners Human Research Committee Protocol (number 1999P001297), were incubated with H2DCFDA (5 μM, 30 min, 37° C.), excess dye was washed off and cells incubated with RvT1 (1 pM-10 nM), 1:1 mixture RvT2 and RvT3 (1 pM-10 nM), RvT4 (1 pM-10 nM) or vehicle (0.1% EtOH in DPBS, 15 min, 37° C.), then incubated with E. coli (1:50 leukocytes to E. coli, 45 min, 37° C.). Intracellular reactive oxygen species were determined by measuring fluorescence using an M3 SpectraMax plate reader. To assess bacterial phagocytosis, macrophages (5×10^4 cells/well) or neutrophils (1×10^5 cells/well) were incubated with RvT1 (1 pM-10 nM), 1:1 mixture RvT2 and RvT3 (1 pM-10 nM), RvT4 (1 pM-10 nM) or vehicle (0.1% EtOH in DPBS, 15 min, 37° C.), then incubated with BacLight Green (Molecular Probes) labeled E. coli (1:50 leukocytes to E. coli, 45 min, 37° C.). Extracellular fluorescence was then quenched using Trypan blue (1:15 dilution), and phagocytosis was assessed using an M3 SpectraMax plate reader.

human macrophages [5] = assay: Human macrophage caspase 1, IL-1β and lactate dehydrogenase; type: cell-based
Method: Human macrophages (1.5×10^4 cells/well) were incubated with RvT1 (10 pM-10 nM), 1:1 mixture RvT2 and RvT3 (10 pM-10 nM), RvT4 (10 pM-10 nM) or vehicle (0.1% EtOH in DPBS, 15 min, 37° C.), then E. coli (7.5×10^5 cells/well, in DPBS, 16 h, 37° C.). Caspase 1 levels were assessed in macrophages by flow cytometry after cell fixing and permeabilization, staining with an anti-caspase 1 (Abcam; 4° C., 30 min) and anti-rabbit-Alexa 488 conjugated antibody (Molecular Probes; 4° C., 30 min). IL-1β levels were determined in cell-free supernatants using an anti-human IL-1β ELISA (eBiosciences) following manufacturer's instructions. Lactate dehydrogenase activity was measured in cell-free supernatants assessing the formation of NADH from NAD+ using a Lactate Dehydrogenase Assay kit (Sigma) following manufacturer's instructions.

human neutrophils = assay: Human neutrophil phagocytosis and ROS; type: cell-based; settings: 1 pM-1.0 nM, n=4 donors
Method: Macrophages were prepared from peripheral blood mononuclear cells (PBMC) purchased from Children's Hospital Blood Bank, Boston, and phagocytosis was assessed as in^31. Briefly, macrophages (5×10^4 cells/well) were incubated with RvT1 (1 pM-10 nM), 1:1 mixture RvT2 and RvT3 (1 pM-10 nM), RvT4 (1 pM-10 nM) or vehicle (0.1% EtOH in DPBS) for 15 min at 37° C., then fluorescent labeled apoptotic cells were added and cells incubated 45 min at 37° C. Extracellular fluorescence was quenched using Trypan blue (1:15 dilution) and phagocytosis assessed using an M3 SpectraMax plate reader (Molecular Devices). […] Intracellular reactive oxygen species were determined by measuring fluorescence using an M3 SpectraMax plate reader. […] Extracellular fluorescence was then quenched using Trypan blue (1:15 dilution), and phagocytosis was assessed using an M3 SpectraMax plate reader.

human recombinant COX-2 [6] = target: T1, human recombinant COX-2; assay: n-3 DPA conversion by S-nitrosylated hrCOX-2; type: biochemical; settings: hrCOX-2 incubated with S-nitrosoglutathione
Method: In designated experiments, n-3 DPA was incubated with hrCOX2, hrCOX-2 that was previously incubated with S-nitrosoglutathione (30 min RT), prepared by incubating 100 mM glutathione with 100 mM sodium nitrite in 200 mM hydrochloric acid at RT as in ^34 or S-nitrosoglutathione. After 20 min the incubations were quenched with methanol and 13-HDPA levels were assessed using LC-MS-MS-based LM metabololipidomics.

[7] = summary table, macrophages and neutrophils

## CC/C=C\C/C=C\C/C=C\C/C=C\C/C=C\CCCCCC(=O)O [n-3 DPA, n-3 docosapentaenoic acid]
[1]
  increase in RvT amounts on co-incubation with precursor: 30-50%
Human recombinant COX-2 [2]
  Km: 3.1 ± 1.3 µM

## CCC(O)/C=C/C=C\C=C\C(O)C/C=C\C=C\C(O)CCCCCC(=O)O (stereo not drawn) [RvT1, 7,13,20-trihydroxy-docosapentaenoic acid]
[3]
  In vivo: circulating platelet-leukocyte aggregates: Reduces circulating platelet-
  In vivo: exudate pro-inflammatory eicosanoid levels during infections: Reduces exudate pro-
  In vivo: infection induced hypothermia: Protects against infection
  In vivo: macrophage efferocytosis of apoptotic neutrophils: Stimulates macrophage
  In vivo: murine leukocyte phagocytosis of E. coli: Stimulates murine leukocyte
  In vivo: neutrophil recruitment during infections: Limits neutrophil recruitment
  In vivo: protective actions of atorvastatin in infections: Elaborates the protective
  In vivo: pyroptosis: Reduces pyroptosis
Human macrophages [4]; 1 pM-10 nM
  E. coli phagocytosis in human macrophages: dose-dependently increased
  efferocytosis of apoptotic neutrophils by human macrophages: dose-dependently increased
  intracellular reactive oxygen species (ROS) in human macrophages: dose-dependently increased
Human macrophages [4]; summary table of bioactions
  In vitro: human macrophage efferocytosis of apoptotic neutrophils: Stimulates human
Human macrophages [4]; [7]
  In vitro: human macrophage and neutrophil intra-phagolysosomal ROS production: Stimulates human
  In vitro: human macrophage and neutrophil phagocytosis of E. coli: Stimulates human
Human macrophages [5]; 10 pM-10 nM, E. coli 16 h
  IL-1β expression, human macrophages: decreasing
  caspase-1 expression, human macrophages: decreasing
  extracellular lactate dehydrogenase activity, human macrophages: decreasing
Human macrophages [5]; summary table of bioactions
  In vitro: E. coli induced inflammasome components in human macrophages: Reduces E. coli induced
  In vitro: E. coli induced macrophage pyroptosis: Reduces E. coli induced
Human neutrophils
  increase in E. coli phagocytosis, human neutrophils: 20-55%
  increase in intracellular ROS, human neutrophils: 20-40%

## N[C@@H](CCC(=O)N[C@@H](CSN=O)C(=O)NCC(=O)O)C(=O)O [S-nitrosoglutathione]
Human recombinant COX-2 [6]
  13R-HDPA and hrCOX-2 catalytic activity compared to native COX-2: increased
